Assay results taken from PubChem BioAssay AID330 (DTP/NCI, 2004).
Several values for one entry are separate records, joined by “and”; a condition that tells them apart may be missing. Equal entries are not always repeated. Toxic doses and inconclusive results are not listed.

Tested on: P388 leukemia ip, CD2F1 mice, survival T/C
Experiment: NCI In Vivo Anticancer Drug Screen. Data for tumor model P388 Leukemia (intraperitoneal) in CD2F1 (CDF1) mice
Conditions: endpoint: median survival time, higher = longer survival
Summary of the method: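 Mice carrying the transplanted tumor received test compound or vehicle. Survival was recorded in each group, and the value is the treated-group measurement divided by that of the vehicle-treated control group.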

[1] = dose: 50.0 mg/kg/injection, schedule: Q04DX002 (ip), vehicle: saline with Tween-80
[2] = dose: 100.0 mg/kg/injection, schedule: Q04DX002 (ip), vehicle: saline with Tween-80
[3] = dose: 200.0 mg/kg/injection, schedule: Q01DX009 (ip), vehicle: Klucel (hydroxypropylcellulose) (HPC)
[4] = dose: 50.0 mg/kg/injection, schedule: Q01DX005 (ip), vehicle: Klucel (hydroxypropylcellulose) (HPC)
[5] = dose: 100.0 mg/kg/injection, schedule: Q01DX005 (ip), vehicle: Klucel (hydroxypropylcellulose) (HPC)
[6] = dose: 200.0 mg/kg/injection, schedule: Q01DX005 (ip), vehicle: Klucel (hydroxypropylcellulose) (HPC)
[7] = dose: 100.0 mg/kg/injection, schedule: Q01DX009 (ip), vehicle: saline with Tween-80
[8] = dose: 50.0 mg/kg/injection, schedule: Q01DX009 (ip), vehicle: saline with Tween-80
[9] = dose: 200.0 mg/kg/injection, schedule: Q01DX009 (ip), vehicle: saline with Tween-80
[10] = dose: 100.0 mg/kg/injection, schedule: Q01DX009 (ip), vehicle: saline
[11] = dose: 50.0 mg/kg/injection, schedule: Q01DX009 (ip), vehicle: Klucel (hydroxypropylcellulose) (HPC)
[12] = dose: 100.0 mg/kg/injection, schedule: Q01DX009 (ip), vehicle: Klucel (hydroxypropylcellulose) (HPC)
[13] = dose: 25.0 mg/kg/injection, schedule: Q04DX003 (ip), vehicle: saline with Tween-80
[14] = dose: 100.0 mg/kg/injection, schedule: Q04DX003 (ip), vehicle: saline with Tween-80

For `CC(=O)OCC1OC(Nc2[nH]c(=O)[nH]c(=O)c2C(=O)CCl)C(OC(C)=O)C(OC(C)=O)C1OC(C)=O` (configuration not stated), the T/C [2] was 121 % of control, the T/C (dose: 200.0 mg/kg/injection, schedule: Q04DX002 (ip), vehicle: saline with Tween-80) was 111 % of control and the T/C (dose: 400.0 mg/kg/injection, schedule: Q04DX002 (ip), vehicle: saline with Tween-80) was 99 % of control.
With `COc1ccc(OC)c(NC(=O)NC(c2ccccc2)c2ccccc2)c1` the T/C (dose: 3.12 mg/kg/injection, schedule: Q01DX009 (ip), vehicle: Klucel (hydroxypropylcellulose) (HPC)) was 96 % of control, the T/C (dose: 6.25 mg/kg/injection, schedule: Q01DX009 (ip), vehicle: Klucel (hydroxypropylcellulose) (HPC)) was 90 % of control and the T/C [3] was 93 % of control.
With `Cc1nc2c3c4c(sc3nc(C)n2n1)CCCC4` the T/C [4] was 105 % of control, the T/C [5] was 100 % of control and the T/C [6] was 98 % of control.
With `COc1cc2ccc3c(c2cc1OC)C=[N+](C)CC3` the T/C (dose: 44.0 mg/kg/injection, schedule: Q01DX009 (ip), vehicle: saline with Tween-80) was 100 % of control, the T/C (dose: 66.0 mg/kg/injection, schedule: Q01DX009 (ip), vehicle: saline with Tween-80) was 109 % of control and the T/C [7] was 109 % of control. The T/C (dose: 150.0 mg/kg/injection, schedule: Q01DX009 (ip), vehicle: saline with Tween-80) was 113 % of control.
In the case of `O=C1[C@@H]2C3C=CC([C@H]4C(=O)N(CO)C(=O)[C@@H]34)[C@@H]2C(=O)N1CO`, the T/C (dose: 25.0 mg/kg/injection, schedule: Q01DX009 (ip), vehicle: Klucel (hydroxypropylcellulose) (HPC)) is reported as 114 % of control and the T/C [3] is reported as 152 % of control and 160 % of control.
With `COc1ccc(/C=N/N(C)C(=O)Nc2cccc(Cl)c2)cc1OC` the T/C [8] was 98 % of control, the T/C [7] was 98 % of control and the T/C [9] was 105 % of control.
With `O=C(O)c1c[nH]c2cc(OCCOc3ccccc3)ccc2c1=O` the T/C (dose: 50.0 mg/kg/injection, schedule: Q01DX009 (ip), vehicle: saline) was 107 % of control, the T/C [10] was 107 % of control and the T/C (dose: 200.0 mg/kg/injection, schedule: Q01DX009 (ip), vehicle: saline) was 100 % of control.
For `CCOC(=O)c1ccc(NC(c2ccc(N(CCCl)CCCl)cc2)P(=O)(Oc2ccccc2)Oc2ccccc2)cc1` (configuration not stated), the T/C [11] was 93 % of control, the T/C [12] was 96 % of control and the T/C [3] was 95 % of control.
In the case of `CCCCCCCCCCC[N+](C)([O-])CCCCCC[N+](C)([O-])CCCCCCCCCCC` (configuration not stated), the T/C (dose: 12.5 mg/kg/injection, schedule: Q01DX009 (ip), vehicle: saline with Tween-80) is reported as 100 % of control, the T/C (dose: 25.0 mg/kg/injection, schedule: Q01DX009 (ip), vehicle: saline with Tween-80) is reported as 100 % of control and the T/C [8] is reported as 102 % of control and 96 % of control.
For `Cc1c2oc3c(C)ccc(C(=O)NCCCN4CCN(C)CC4)c3nc-2c(C(=O)NCCCN2CCN(C)CC2)c(N)c1=O`, the T/C (dose: 6.25 mg/kg/injection, schedule: Q04DX003 (ip), vehicle: saline with Tween-80) was 106 % of control, the T/C (dose: 12.5 mg/kg/injection, schedule: Q04DX003 (ip), vehicle: saline with Tween-80) was 104 % of control and the T/C [13] was 114 % of control and 117 % of control. For the same compound, the T/C [14] was 123 % of control.
With `O=C(NC(Cc1ccc([N+](=O)[O-])cc1)C(=O)O)c1ccccc1` (configuration not stated) the T/C (dose: 25.0 mg/kg/injection, schedule: Q01DX009 (ip), vehicle: other) was 104 % of control, the T/C (dose: 50.0 mg/kg/injection, schedule: Q01DX009 (ip), vehicle: other) was 110 % of control and the T/C (dose: 100.0 mg/kg/injection, schedule: Q01DX009 (ip), vehicle: other) was 104 % of control.
In the case of `O=C(O)c1c2cc(Br)ccc2nc2[nH]c(=O)[nH]c(=O)c12`, the T/C (dose: 50.0 mg/kg/injection, schedule: Q01DX005 (ip), vehicle: Klucel + Tween-80) is reported as 104 % of control, the T/C (dose: 100.0 mg/kg/injection, schedule: Q01DX005 (ip), vehicle: Klucel + Tween-80) is reported as 112 % of control and the T/C (dose: 200.0 mg/kg/injection, schedule: Q01DX005 (ip), vehicle: Klucel + Tween-80) is reported as 111 % of control.
With `NC(=O)CC(NC(c1ccccc1)(c1ccccc1)c1ccccc1)C(=O)ON1C(=O)CCC1=O` (configuration not stated) the T/C (dose: 25.0 mg/kg/injection, schedule: Q01DX001 (ip), vehicle: saline with Tween-80) was 104 % of control, the T/C (dose: 50.0 mg/kg/injection, schedule: Q01DX001 (ip), vehicle: saline with Tween-80) was 100 % of control and the T/C (dose: 100.0 mg/kg/injection, schedule: Q01DX001 (ip), vehicle: saline with Tween-80) was 100 % of control.
For `COC(=O)[C@@]12OC[C@]34C([C@@H](O)C1O)[C@@]1(C)CC(=O)C(O)=C(C)C1C[C@H]3OC(=O)[C@H](OC(=O)c1ccccc1Cl)[C@H]42` (some centres not stated), the T/C (dose: 0.25 mg/kg/injection, schedule: Q01DX005 (ip), vehicle: DMSO) was 110 % of control, the T/C (dose: 0.5 mg/kg/injection, schedule: Q01DX005 (ip), vehicle: DMSO) was 110 % of control and the T/C (dose: 1.0 mg/kg/injection, schedule: Q01DX005 (ip), vehicle: DMSO) was 105 % of control and 97 % of control. The T/C (dose: 2.0 mg/kg/injection, schedule: Q01DX005 (ip), vehicle: DMSO) was 107 % of control and 112 % of control, the T/C (dose: 4.0 mg/kg/injection, schedule: Q01DX005 (ip), vehicle: DMSO) was 109 % of control and the T/C (dose: 8.0 mg/kg/injection, schedule: Q01DX005 (ip), vehicle: DMSO) was 101 % of control and 107 % of control. For the same compound, the T/C (dose: 16.0 mg/kg/injection, schedule: Q01DX005 (ip), vehicle: DMSO) was 108 % of control and the T/C (dose: 32.0 mg/kg/injection, schedule: Q01DX005 (ip), vehicle: DMSO) was 107 % of control.
In the case of `O=C(N/N=C/c1cccc2ccccc12)c1cccnc1`, the T/C (dose: 6.25 mg/kg/injection, schedule: Q01DX009 (ip), vehicle: saline) is reported as 100 % of control, the T/C (dose: 12.5 mg/kg/injection, schedule: Q01DX009 (ip), vehicle: saline) is reported as 89 % of control and the T/C [10] is reported as 98 % of control.
In the case of `CCCCN1C(=O)C(=O)N(CCc2ccc(OC)c(OC)c2)C1=O`, the T/C [11] is reported as 91 % of control, the T/C [12] is reported as 86 % of control and the T/C [3] is reported as 91 % of control.
For `FC(F)(F)c1ccc(NC(=S)SCc2ccc3c(c2)OCO3)cc1`, the T/C (dose: 50.0 mg/kg/injection, schedule: Q01DX009 (ip), vehicle: suspension in saline) was 98 % of control and the T/C (dose: 100.0 mg/kg/injection, schedule: Q01DX009 (ip), vehicle: suspension in saline) was 93 % of control.
For `Cc1cc(OC(=O)Nc2c(Cl)cccc2Cl)c(Cl)c(C)c1Cl`, the T/C [8] was 112 % of control, the T/C [7] was 109 % of control and the T/C [9] was 105 % of control.
In the case of `COc1cc(/C=C2/CCC/C(=C\c3ccc(OCC(O)COc4ccc(C(C)(C)c5ccc(OCC6CO6)cc5)cc4)c(OC)c3)C2=O)ccc1OCC(O)COc1ccc(C(C)(C)c2ccc(OCC3CO3)cc2)cc1` (configuration not stated), the T/C [11] is reported as 96 % of control, the T/C [12] is reported as 97 % of control and the T/C [3] is reported as 95 % of control.
With `CN(C)c1ccc2nc3c(cc(Nc4cccc5cccc(Nc6cc7ccccc7c7nc8ccc(N(C)C)cc8[o+]c67)c45)c4ccccc43)[o+]c2c1` the T/C (dose: 60.0 mg/kg/injection, schedule: Q01DX005 (ip), vehicle: saline with Tween-80) was 90 % of control, the T/C (dose: 120.0 mg/kg/injection, schedule: Q01DX005 (ip), vehicle: saline with Tween-80) was 100 % of control and the T/C (dose: 240.0 mg/kg/injection, schedule: Q01DX005 (ip), vehicle: saline with Tween-80) was 91 % of control.
In the case of `CNCCCCCc1cc(-c2ccc([N+](=O)[O-])cc2)n[nH]1`, the T/C [13] is reported as 103 % of control, the T/C (dose: 50.0 mg/kg/injection, schedule: Q04DX003 (ip), vehicle: saline with Tween-80) is reported as 103 % of control and the T/C [14] is reported as 100 % of control and 94 % of control.
With `CCC1c2ccc3cc(OC)ccc3c2CCC1(C)C(=O)O` (configuration not stated) the T/C [4] was 100 % of control, the T/C [5] was 98 % of control and the T/C [6] was 100 % of control.
`N#CCCn1ncc(=O)[nH]c1=O` was tested, and the T/C (dose: 50.0 mg/kg/injection, schedule: Q01DX005 (ip), vehicle: water) was 101 % of control, the T/C (dose: 100.0 mg/kg/injection, schedule: Q01DX005 (ip), vehicle: water) was 104 % of control and the T/C (dose: 200.0 mg/kg/injection, schedule: Q01DX005 (ip), vehicle: water) was 107 % of control.
With `O=C1CCCC2=C1c1cc3c(cc1CCN2)OCO3` the T/C (dose: 25.0 mg/kg/injection, schedule: Q04DX002 (ip), vehicle: saline with Tween-80) was 101 % of control, the T/C [1] was 96 % of control and the T/C [2] was 94 % of control and 97 % of control.
`CN(C)C1CS(=O)(=O)OC2=C1CCOc1ccccc12` (configuration not stated) was tested, and the T/C (dose: 60.0 mg/kg/injection, schedule: Q01DX005 (ip), vehicle: Klucel (hydroxypropylcellulose) (HPC)) was 97 % of control, the T/C (dose: 120.0 mg/kg/injection, schedule: Q01DX005 (ip), vehicle: Klucel (hydroxypropylcellulose) (HPC)) was 91 % of control and the T/C (dose: 240.0 mg/kg/injection, schedule: Q01DX005 (ip), vehicle: Klucel (hydroxypropylcellulose) (HPC)) was 89 % of control.
